Experimental data reported in PMC9920749, “In Vitro and In Silico Studies of Neolignans from Magnolia grandiflora L. Seeds against Human Cannabinoids and Opioid Receptors” (Molecules, 2023).
Read-outs that look alike come from different tables or passages of the source.

What was measured:
[1] = target: T1, CB1R (Homo sapiens, UniProt P21554); experiment: Competitive radioligand binding assay, [3H]-CP55,940, HEK293 membranes; settings: for Cannabinoid Receptors (% Displacement) CB1: 10 μM purified compounds and 2 + 3; for IC50: concentration for 50% displacement of 3H-labeled ligand; for Ki: read-out: CB1R Ki ± SEM
T1 construct: expressed in transfected cells; host or cells: HEK293 (ATCC), stably transfected; membrane preparation
Description: (§1) HEK293 cells stably transfected with δ, κ, and μ opioid subtypes were a generous gift from Roth Laboratories (University of North Carolina at Chapel Hill, NC, USA). Opioid cells were maintained as previously described. Membranes were made by washing the cells with cold PBS. The cells were then scraped in cold 50 mM Tris-HCl, pH 7.4 buffer. The solution was centrifuged at 5200× g for 10 min at 4 °C. Next, the supernatant was discarded, and the pellet was washed with more Tris-HCl buffer, homogenized via Sonic Dismembrator (Fisher Scientific, Pittsburgh, PA, USA) and then centrifuged at 24,000× g for 40 min at 4 °C. Finally, the pellet was re-suspended in cold 50 mM Tris-HCl buffer, aliquoted into 2 mL vials, and stored at −80 °C. The total membrane protein concentration was measured using a Pierce BCA Protein Assay Kit (Thermo Scientific, Rockford, IL, USA) as per the manufacturer’s protocol.
(§2) Cannabinoid and opioid competitive radioligand binding assays were performed as previously described. Saturation experiments were performed for all the receptors to determine receptor concentration and radioligand dissociation constant (Kd) for the membrane. Percent displacements were evaluated for all the cannabinoid and opioid subtypes with a triplicate of a fixed concentration (10 µg/mL for extracts and fractions, 10 μM for purified compounds). […] Control/test compounds were dissolved in DMSO at 10 μg/mL for extracts and fractions and 10 μM for purified compounds. […] The competitive binding assays were performed using 12 serial dilutions of each compound ranging from 0.002–300 μM (control compounds were serially diluted from 10 μM to 0.06 nM). The cannabinoid assays were incubated for 90 min at 37 °C with gentle agitation. The opioid assays were incubated for 60 min at room temperature. Bound radioligand was collected on GF/C (cannabinoid) or GF/B plates (opioid), washed 10 times with ice-cold 50 mM Tris-HCl (pH 7.4)/0.1% BSA (cannabinoid) or ice-cold 50 mM Tris-HCl (pH 7.4) (opioid). Radiodetection was measured with 50 µL (cannabinoid) or 25 µL (opioid) MicroScint^TM-20 on a TopCount NXT HTS Microplate Scintillation Counter (PerkinElmer, Waltham, MA, USA). The IC50 and Ki values were calculated by a non-linear curve fit model using GraphPad Prizm 5.0 software (GraphPad Software Inc., San Diego, CA, USA). Each compound was tested in triplicate unless stated otherwise.
(§3) Percent displacement was calculated to represent the ability of the samples to displace the radioligand binding for a given cannabinoid or opioid receptor subtype.
(§4) % displacement was calculated as follows: 100− binding of compound−nonspecific binding/specific binding×100

[2] = target: CB2R; settings: cited from earlier work
[3] = tested on: CB2R; design: method as in earlier work; settings: ref 27 (Rempel et al. 2013); cited from earlier work
[4] = target: CB1R; settings: data from the original publication; read-out: CB1R Agonist Ki; cited from earlier work
[5] = target: T2, CB2R (Homo sapiens, UniProt P34972); experiment: Competitive radioligand binding assay, [3H]-CP55,940, HEK293 membranes; settings: for Cannabinoid Receptors (% Displacement) CB2: 10 μM purified compounds and 2 + 3
T2 construct: expressed in transfected cells; host or cells: HEK293 (ATCC), stably transfected; membrane preparation
Description: as §2, §3, §4

[6] = tested on: CB1 receptor; design: method as in PMID 24204944; settings: forskolin-induced cAMP; cited from earlier work
[7] = target: T3, κ opioid receptor (Homo sapiens, UniProt P41145); assay type: binding; settings: 10 μM purified compounds and 2 + 3
T3 construct: host or cells: HEK293, stably transfected; membrane preparation
Description: as §1, with “Finally, the pellet was re-suspended in cold 50 mM Tris-HCl buffer, aliquoted into 2 mL vials, and stored at −80 °C.” left out
(§5) Cannabinoid and opioid competitive radioligand binding assays were performed as previously described. […] Percent displacements were evaluated for all the cannabinoid and opioid subtypes with a triplicate of a fixed concentration (10 µg/mL for extracts and fractions, 10 μM for purified compounds). […] Radiodetection was measured with 50 µL (cannabinoid) or 25 µL (opioid) MicroScint^TM-20 on a TopCount NXT HTS Microplate Scintillation Counter (PerkinElmer, Waltham, MA, USA). The IC50 and Ki values were calculated by a non-linear curve fit model using GraphPad Prizm 5.0 software (GraphPad Software Inc., San Diego, CA, USA). […]

[8] = tested on: CB2 receptor; design: method as in PMID 24204944; settings: forskolin-induced cAMP; cited from earlier work
[9] = target: T4, µ opioid receptor (Homo sapiens, UniProt P35372); experiment: biochemical; assay type: binding; settings: for Opioid Receptors (% Displacement) µ: 10 μM purified compounds and 2 + 3; for IC50: 2 and 3 run as a singlet; for µ Opioid Receptor Ki ± SEM / Ki: 2 and 3 run as a singlet (no S.E.M.); for Ki: read-out: µ Opioid Receptor Ki ± SEM
T4 construct: host or cells: HEK293, stably transfected; membrane preparation
Description: as §1, §2, §3, §4

[10] = target: T5, δ opioid receptor (Homo sapiens, UniProt P41143); experiment: Competitive radioligand binding assay, [3H]-enkephalin (DPDPE), HEK293 membranes; settings: 10 μM purified compounds and 2 + 3
T5 construct: host or cells: HEK293, stably transfected; membrane preparation
Description: as §1, with “Finally, the pellet was re-suspended in cold 50 mM Tris-HCl buffer, aliquoted into 2 mL vials, and stored at −80 °C.” left out
as §5

[11] = tested on: CB2R; design: method as in Schuehly et al. (2011); settings: ref Schuehly et al. (2011); cited from earlier work
[12] = data from the original publication, read-out: CB2R Agonist Ki
[13] = concentration for 50% displacement of 3H-labeled ligand, read-out: CB2R IC50

T1 sequence (P21554 whole entry): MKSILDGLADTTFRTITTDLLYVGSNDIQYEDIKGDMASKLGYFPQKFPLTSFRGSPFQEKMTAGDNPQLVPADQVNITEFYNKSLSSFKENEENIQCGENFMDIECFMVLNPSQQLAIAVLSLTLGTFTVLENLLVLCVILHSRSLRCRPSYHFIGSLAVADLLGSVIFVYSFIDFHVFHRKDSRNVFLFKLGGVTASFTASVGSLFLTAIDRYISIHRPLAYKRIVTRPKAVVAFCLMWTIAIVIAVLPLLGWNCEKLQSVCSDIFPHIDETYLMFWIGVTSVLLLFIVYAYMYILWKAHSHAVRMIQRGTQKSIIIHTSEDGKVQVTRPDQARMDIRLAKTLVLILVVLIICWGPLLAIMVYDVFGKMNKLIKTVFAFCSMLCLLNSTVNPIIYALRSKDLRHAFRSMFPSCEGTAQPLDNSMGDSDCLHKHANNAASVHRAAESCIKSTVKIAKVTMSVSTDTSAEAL
T4 sequence (P35372 whole entry): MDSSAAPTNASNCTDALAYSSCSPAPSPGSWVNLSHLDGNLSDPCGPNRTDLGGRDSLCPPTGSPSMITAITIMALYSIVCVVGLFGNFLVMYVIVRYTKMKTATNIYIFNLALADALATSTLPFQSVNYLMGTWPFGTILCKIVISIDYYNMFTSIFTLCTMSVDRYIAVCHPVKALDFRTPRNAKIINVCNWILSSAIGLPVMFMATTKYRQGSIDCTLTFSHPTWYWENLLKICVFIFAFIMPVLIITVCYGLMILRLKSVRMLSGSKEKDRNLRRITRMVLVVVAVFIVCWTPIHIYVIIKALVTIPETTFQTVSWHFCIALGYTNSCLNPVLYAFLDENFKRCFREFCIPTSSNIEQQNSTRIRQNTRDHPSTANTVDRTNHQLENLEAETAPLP
T2 sequence (P34972 whole entry): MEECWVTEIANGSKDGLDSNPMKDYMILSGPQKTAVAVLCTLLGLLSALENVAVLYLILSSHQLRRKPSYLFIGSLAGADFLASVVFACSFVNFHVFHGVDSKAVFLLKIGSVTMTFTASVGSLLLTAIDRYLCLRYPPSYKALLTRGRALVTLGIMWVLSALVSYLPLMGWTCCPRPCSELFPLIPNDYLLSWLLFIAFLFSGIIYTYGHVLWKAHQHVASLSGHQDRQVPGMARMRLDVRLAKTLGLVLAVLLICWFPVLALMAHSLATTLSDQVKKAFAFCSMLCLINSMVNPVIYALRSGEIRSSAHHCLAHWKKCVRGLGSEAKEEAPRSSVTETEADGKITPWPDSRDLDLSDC
T5 sequence (P41143 whole entry): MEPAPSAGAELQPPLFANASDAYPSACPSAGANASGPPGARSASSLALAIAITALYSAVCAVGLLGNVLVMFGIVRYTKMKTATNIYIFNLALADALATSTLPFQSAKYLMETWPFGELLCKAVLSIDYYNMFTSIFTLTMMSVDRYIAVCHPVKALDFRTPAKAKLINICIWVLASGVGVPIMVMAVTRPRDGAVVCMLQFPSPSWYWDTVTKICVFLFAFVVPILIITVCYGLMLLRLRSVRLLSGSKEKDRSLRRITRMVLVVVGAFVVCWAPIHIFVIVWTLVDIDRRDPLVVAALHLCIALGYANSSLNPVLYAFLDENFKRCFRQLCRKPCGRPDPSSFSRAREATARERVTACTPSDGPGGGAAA
T3 sequence (P41145 whole entry): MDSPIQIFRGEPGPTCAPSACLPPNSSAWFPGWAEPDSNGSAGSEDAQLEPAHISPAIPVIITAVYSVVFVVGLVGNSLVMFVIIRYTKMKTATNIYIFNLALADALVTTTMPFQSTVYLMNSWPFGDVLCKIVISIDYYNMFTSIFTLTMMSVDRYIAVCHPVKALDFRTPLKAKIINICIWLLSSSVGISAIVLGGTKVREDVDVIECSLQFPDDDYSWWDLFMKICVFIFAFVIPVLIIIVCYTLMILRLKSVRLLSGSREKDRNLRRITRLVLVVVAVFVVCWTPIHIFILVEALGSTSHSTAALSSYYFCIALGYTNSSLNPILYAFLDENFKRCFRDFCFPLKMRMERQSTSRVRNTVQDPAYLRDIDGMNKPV

## CCCc1ccc(O)c(-c2cc(CCC)ccc2O)c1 [Compound 4, tetrahydromagnolol]
[1]
  Cannabinoid Receptors (% Displacement) CB1: 30.8%
  IC50: 38.2 µM
  Ki: 19.1 ± 0.79 µM
[2]; [12]
  Ki: 0.416 µM
[2]; ref 27 (Rempel et al. 2013), read-out: CB2R Ki
  Ki: 0.41 µM
[3]
  functional character at CB2R: partial CB2R agonists
[4]
  Ki: 2.26 µM
[5]
  Cannabinoid Receptors (% Displacement) CB2: 78.2%
[5]; [13]
  IC50: 1.99 µM
[5]; read-out: CB2R Ki ± SEM
  Ki: 0.99 ± 0.14 µM

## C=CCc1ccc(O)c(-c2ccc(OC)c(CC=C)c2)c1 [Compound 1, 4-O-methylhonokiol]
[2]; [12]
  Ki: 0.0433 ± 0.0171 µM
[6]
  functional activity at CB1 in cAMP accumulation: agonist
[7]
  Opioid Receptors (% Displacement) κ: 18.3%
[8]
  functional activity at CB2 in cAMP accumulation: agonist
[9]
  Opioid Receptors (% Displacement) µ: 46.2%
[10]
  Opioid Receptors (% Displacement) Δ: 31.4%
[5]
  IC50: 0.59 µM
  Ki: 0.29 ± 0.02 µM
  Cannabinoid Receptors (% Displacement) CB2: 82.2%
[11]
  behavior at CB2R at Gi/o: inverse agonist
  behavior at CB2R regarding intracellular Ca2+ [Ca2+]i: full agonist

## CCCCCCc1ccc(OC)c(-c2cc(CCC)ccc2O)c1 [Compound 6b]
[2]; [12]
  Ki: 0.281 ± 0.101 µM
[4]
  Ki: 0.313 µM

## C=CCc1ccc(O)c(-c2ccc(O)c(CC=C)c2)c1 [Compound 3, honokiol]
[1]
  Cannabinoid Receptors (% Displacement) CB1: 50.8%
  IC50: 29.1 µM
  Ki: 14.5 ± 2.47 µM
[2]; [12]
  Ki: 5.61 µM
[3]
  functional character at CB2R: CB2R antagonist or inverse agonist
[9]
  Opioid Receptors (% Displacement) µ: 54.2%
  IC50: 91.1 µM
  µ Opioid Receptor Ki ± SEM: low affinity
  Ki: 182 µM
[4]
  Ki: 6.46 µM
[5]
  Cannabinoid Receptors (% Displacement) CB2: 65.7%
[5]; [13]
  IC50: 3.88 µM
[5]; read-out: CB2R Ki ± SEM
  Ki: 1.94 ± 0.16 µM

## CCCCCCc1ccc(O)c(-c2cc(CCC)ccc2O)c1 [Compound 6]
[2]; [12]
  Ki: 0.0294 ± 0.009 µM
[4]
  Ki: 0.145 ± 0.048 µM

## CCCCCCc1ccc(O)c(-c2cc(CCC)ccc2OC)c1 [Compound 6a]
[2]; [12]
  Ki: 0.0238 ± 0.0071 µM
[4]
  Ki: 0.00957 ± 0.00543 µM

## CCCCCc1ccc(O)c(-c2cc(CCC)ccc2O)c1 [Compound 5]
[2]; [12]
  Ki: 0.0375 ± 0.0078 µM
[4]
  Ki: 0.362 ± 0.113 µM

## CCCCCCC(C)(C)c1ccc([C@@H]2C[C@H](O)CC[C@H]2CCCO)c(O)c1 [CP55,940, reference compound]
[5]
  Cannabinoid Receptors (% Displacement) CB2: 101.3%

## CCCCCc1ccc(O)c(-c2cc(CCC)ccc2OC)c1 [Compound 5a]
[2]; [12]
  Ki: 0.031 ± 0.0099 µM
[4]
  Ki: 0.0173 ± 0.0014 µM

## CCCc1ccc(O)c(-c2cc(CCC)ccc2OC)c1 [Compound 4a, methoxytetrahydromagnolol]
[2]; [12]
  Ki: 0.221 ± 0.057 µM
[4]
  Ki: 0.267 ± 0.058 µM

## C=CCc1ccc(O)c(-c2cc(CC=C)ccc2O)c1 [Compound 2, magnolol]
[1]
  Cannabinoid Receptors (% Displacement) CB1: 52.7%
  IC50: 35.6 µM
  Ki: 17.8 ± 3.43 µM
[2]; [12]
  Ki: 1.44 µM
[3]
  functional character at CB2R: partial CB2R agonists
[7]
  Opioid Receptors (% Displacement) κ: 10.7%
[9]
  Opioid Receptors (% Displacement) µ: 52.9%
  IC50: 106 µM
  µ Opioid Receptor Ki ± SEM: low affinity
  Ki: 53.1 µM
[4]
  Ki: 3.15 µM
[10]
  Opioid Receptors (% Displacement) Δ: 7.3%
[5]
  Cannabinoid Receptors (% Displacement) CB2: 74.7%
[5]; [13]
  IC50: 2.89 µM
[5]; read-out: CB2R Ki ± SEM
  Ki: 1.4 ± 0.14 µM
